Assay results reported in ChEMBL document CHEMBL4673233, “Discovery of novel (6S/12aS)-heptachpyridone capable of inhibiting thrombosis in vivo” (Bioorg Med Chem Lett, 2020).
Activity calls are given as the source filed them. The calls are words filed in the database; no cut-off is given here.

What was measured:
[1] = Toxicity in inferior vena cava ligation-induced venous thrombosis rat model assessed as international normalized ratio measure of prothrombin time and exogenous coagulation pathway at 4.87 umol/kg; conditions: in vivo, dose 1 µmol/kg
[2] = Toxicity in inferior vena cava ligation-induced venous thrombosis rat model assessed as bleeding time at 4.87 umol/kg; conditions: in vivo, dose 4.87 µmol/kg
[3] = system: Rattus norvegicus; assay: Antithrombotic activity in rat model of inferior vena cava ligation-induced venous thrombosis assessed as reduction in venous thrombus weight at 4.87 umol/kg, po; type: functional, organism-based; conditions: dose 4.87 µmol/kg
[4] = Toxicity in inferior vena cava ligation-induced venous thrombosis rat model assessed as clotting time at 4.87 umol/kg; conditions: in vivo, dose 4.87 µmol/kg
[5] = system: Rattus norvegicus; assay: Antithrombotic activity in rat model of thread-induced arterial thrombosis assessed as reduction artery thrombus at 167 umol/kg, po; type: functional, organism-based; conditions: dose 167.0 µmol/kg
[6] = Drug metabolism in rat plasma assessed as formation of 6s/12as-heptachpyridone incubated for 1 hr by HPLC-FT-ICR-MS analysis; type: ADME, cell-free
[7] = Drug metabolism in rat plasma assessed as formation of 6s/12as-bisdimethoxyethylheptachpyridone incubated for 1 hr by HPLC-FT-ICR-MS analysis; type: ADME, cell-free
[8] = system: Rattus norvegicus; assay: Antithrombotic activity in rat model of thread-induced arterial thrombosis assessed as reduction artery thrombus at 1 umol/kg, po; type: functional, organism-based; conditions: dose 1.0 µmol/kg
[9] = Toxicity in inferior vena cava ligation-induced venous thrombosis rat model assessed as international normalized ratio measure of prothrombin time and exogenous coagulation pathway at 1 umol/kg; conditions: in vivo, dose 1 µmol/kg
[10] = system: Rattus norvegicus; assay: Antithrombotic activity in rat model of inferior vena cava ligation-induced venous thrombosis assessed as reduction in venous thrombus weight at 1 umol/kg, po; type: functional, organism-based; conditions: dose 1.0 µmol/kg
[11] = Toxicity in inferior vena cava ligation-induced venous thrombosis rat model assessed as clotting time at 1 umol/kg; conditions: in vivo, dose 1 µmol/kg
[12] = Toxicity in inferior vena cava ligation-induced venous thrombosis rat model assessed as bleeding time at 1 umol/kg; conditions: in vivo, dose 1 µmol/kg

Structure (SMILES): CC(=O)CC(c1ccccc1)c1c(O)c2ccccc2oc1=O (configuration not stated) [WARFARIN]
- Activity [1]: Toxic
- Activity [2]: Toxic
- Activity [3]: Active
- Activity [4]: Toxic

Structure (SMILES): CC(=O)Oc1ccccc1C(=O)O
- Activity [5]: Active

Structure (SMILES): COC(C[C@H]1c2[nH]c3ccccc3c2C[C@H]2C(=O)N3[C@@H](Cc4c([nH]c5ccccc45)[C@@H]3CC(OC)OC)C(=O)N21)OC
- Drug metabolism [6]: Metabolite_Detected

Structure (SMILES): COC(C[C@@H]1N[C@H](C(=O)O)Cc2c1[nH]c1ccccc21)OC
- Drug metabolism [7]: Metabolite_Detected

Structure (SMILES): O=CC[C@H]1c2[nH]c3ccccc3c2C[C@H]2C(=O)N3[C@@H](Cc4c([nH]c5ccccc45)[C@@H]3CC=O)C(=O)N21
- Activity [8]: Active
- Activity [9]: Non-Toxic
- Activity [10]: Active
- Activity [11]: Non-Toxic
- Activity [12]: Non-Toxic
